Data published in the NIST ThermoML archive (doi:10.1021/je500284p).
± gives the expanded uncertainty stated by the source.

Conditions: 101.33 kPa, Liquid

NC=O [formamide]
viscosity (298.15 K): 3.23 ± 0.17 mPa·s
viscosity (303.15 K): 2.95 ± 0.16 mPa·s
viscosity (308.15 K): 2.67 ± 0.15 mPa·s
viscosity (313.15 K): 2.43 ± 0.14 mPa·s
viscosity (318.15 K): 2.2 ± 0.13 mPa·s
viscosity (323.15 K): 1.99 ± 0.12 mPa·s
viscosity (328.15 K): 1.82 ± 0.11 mPa·s
viscosity (333.15 K): 1.69 ± 0.11 mPa·s
viscosity (338.15 K): 1.58 ± 0.11 mPa·s
viscosity (343.15 K): 1.52 ± 0.1 mPa·s
viscosity (348.15 K): 1.49 ± 0.1 mPa·s
